Measured values taken from patent US20260041640A1 (INCYCLIX BIO, LLC, priority 2023, published 2026).
In brackets after ≈: the same amount, converted by molar mass. Read-outs that look alike come from different tables or passages of the source.

What was measured:
[1] = system: recurrent advanced/metastatic cancer; assay: First-in-human clinical study: preliminary antitumor activity; assay type: in vivo
Method: Cohort 1 enrollment of 6 subjects dosed at 100 mg oral QD was completed in October of 2023.

[2] = Plasma protein binding, mouse; assay type: in vitro ADME
From the text: Additionally, the whole blood-to-plasma ratio (KWB/P) in humans is 6.20, which also exceeds the other species tested (Table 7).

[3] = Aqueous solubility of INX-315; assay type: physicochemical
[4] = Cohort 1, 100 mg QD, 6 subjects

## NS(=O)(=O)c1ccc(Nc2ncc3cc4n(c3n2)C2(CCCCC2)C(=O)NN4)cc1 [INX-315]
[1]; [4]
  partial response (PR) subjects: 1 subjects
  progressive disease (PD) subjects: 2 subjects
  stable disease (SD) subjects: 3 subjects
[1]; Subject 101-001 (ER+/HER2− breast cancer), 100 mg QD
  response: confirmed PR
[1]; Subject 201-001, end of Cycle 2, 100 mg QD
  decrease in TL: 10%
[2]
  fraction unbound: 0.023
[3]; 0.01 N HCl, simulated gastric fluid, 0.01N HCl, read-out: Dissolved Drug Solubility
  solubility: 269 ± 92 µg/mL (≈ 629 µM)
[3]; 50 mM Na acetate, aqueous buffer, 50 mM Na Acetate, read-out: Total Drug Solubility
  solubility: 19 ± 7 µg/mL (≈ 44.4 µM)
[3]; 0.224% SIF in PBS, fassif, 0.224% SIF in PBS, read-out: Dissolved Drug Solubility
  solubility: 5.3 ± 0.4 µg/mL (≈ 12.4 µM)
[3]; 0.224% SIF in PBS, fassif, 0.224% SIF in PBS, read-out: Total Drug Solubility
  solubility: 6.1 ± 0.4 µg/mL (≈ 14.3 µM)
[3]; 0.5% SIF in PBS, fassgf or other biorelevant, 0.5% SIF in PBS, read-out: Dissolved Drug Solubility
  solubility: 11 ± 1 µg/mL (≈ 25.7 µM)
[3]; 0.5% SIF in PBS, fassgf or other biorelevant, 0.5% SIF in PBS, read-out: Total Drug Solubility
  solubility: 15 ± 0.2 µg/mL (≈ 35.1 µM)
[3]; 0.5% Tween-80 in PBS, aqueous with cosolvent or surfactant or cyclodextrin, 0.5% Tween-80 in PBS, read-out: Dissolved Drug Solubility
  solubility: 59 ± 8 µg/mL (≈ 138 µM)
[3]; 0.5% Tween-80 in PBS, aqueous with cosolvent or surfactant or cyclodextrin, 0.5% Tween-80 in PBS, read-out: Total Drug Solubility
  solubility: 55 ± 1 µg/mL (≈ 129 µM)
[3]; 1% SIF in PBS, fassgf or other biorelevant, 1% SIF in PBS, read-out: Dissolved Drug Solubility
  solubility: 16.3 ± 0.1 µg/mL (≈ 38.1 µM)
[3]; 1% SIF in PBS, fassgf or other biorelevant, 1% SIF in PBS, read-out: Total Drug Solubility
  solubility: 16.4 ± 0.1 µg/mL (≈ 38.4 µM)
[3]; 1% SLS in water, aqueous with cosolvent or surfactant or cyclodextrin, 1% SLS in H2O, read-out: Dissolved Drug Solubility
  solubility: 40 ± 1 µg/mL (≈ 93.6 µM)
[3]; 5% TPGS in PBS, aqueous with cosolvent or surfactant or cyclodextrin, 5% TPGS in PBS, read-out: Dissolved Drug Solubility
  solubility: 313 ± 21 µg/mL (≈ 732 µM)
[3]; 5% TPGS in PBS, aqueous with cosolvent or surfactant or cyclodextrin, 5% TPGS in PBS, read-out: Total Drug Solubility
  solubility: 305 ± 10 µg/mL (≈ 713 µM)
[3]; PBS/Blank FaSSIF, aqueous buffer, PBS/Blank FaSSIF, read-out: Total Drug Solubility
  solubility: 17 ± 2 µg/mL (≈ 39.8 µM)
[3]; high permeability, low solubility
  BCS classification: BCS-2
[3]; water, H2O, read-out: Total Drug Solubility
  solubility: 61 ± 14 µg/mL (≈ 143 µM)
